Experimental data: ChEMBL document CHEMBL1140606, “Green tea catechins inhibit bacterial DNA gyrase by interaction with its ATP binding site” (J Med Chem, 2007)
Values after ≈ are worked out from the molar mass of the structure shown. Active and inactive are the calls of the source. No cut-off for these calls is given here.

Assays:
[1] = tested on: Escherichia coli; assay: Displacement of ethidium bromide from Escherichia coli DNA gyrase B
[2] = tested on: Escherichia coli; assay: Antibacterial activity against Escherichia coli; assay type: functional
[3] = (§1) Inhibition of Escherichia coli DNA gyrase B supercoiling activity
[4] = tested on: Escherichia coli; assay: Inhibition of Escherichia coli DNA gyrase B ATPase activity
[5] = Displacement of fluorescent quercetin from Escherichia coli BL21 (DE3) recombinant DNA gyrase B G24
[6] = tested on: Escherichia coli; assay: Displacement of picogreen from Escherichia coli DNA gyrase B
[7] = tested on: Escherichia coli; assay: Inhibition of Escherichia coli DNA gyrase B supercoiling activity upto 100 uM
[8] = tested on: Escherichia coli; assay: as §1

O=C(O[C@@H]1Cc2c(O)cc(O)cc2O[C@@H]1c1ccc(O)c(O)c1)c1cc(O)c(O)c(O)c1 [EPICATECHIN GALLATE]
Activity [1]: inactive
MIC [2]: 25 µM (≈ 11.1 µg/mL)
IC50 [3]: 50 µM
Activity [4]: Active
Kd [5]: 36 µM
Activity [6]: inactive

Oc1cc(O)c2c(c1)O[C@H](c1ccc(O)c(O)c1)[C@H](O)C2 [(-)-EPICATECHIN]
Activity [1]: inactive
MIC [2]: > 1000 µM
Activity [7]: inactive
Activity [8]: inactive
Activity [4]: inactive
Kd [5]: 54 µM
Activity [6]: inactive

O=C(O[C@@H]1Cc2c(O)cc(O)cc2O[C@@H]1c1cc(O)c(O)c(O)c1)c1cc(O)c(O)c(O)c1 [EPIGALOCATECHIN GALLATE]
Activity [1]: inactive
MIC [2]: 10 µM (≈ 4.58 µg/mL)
IC50 [3]: 50 µM
Activity [4]: Active
Kd [5]: 23 µM
Activity [6]: inactive

O=c1c(O)c(-c2ccc(O)c(O)c2)oc2cc(O)cc(O)c12 [QUERCETIN]
Kd [5]: 15 µM

Oc1cc(O)c2c(c1)O[C@H](c1cc(O)c(O)c(O)c1)[C@H](O)C2 [EPIGALLOCATECHIN]
Activity [1]: inactive
MIC [2]: 100 µM (≈ 30.6 µg/mL)
Activity [7]: inactive
Activity [4]: Active
Kd [5]: 34 µM
Activity [6]: inactive
